Laboratory results published in paper PMC9763333, “In vitro characterization of immune modulating drug-eluting immunobeads towards transarterial embolization in cancer” (Scientific Reports, 2022).
Values joined by “and” are separate entries in the source; they are usually repeats but may differ in a detail not shown here. Equal entries are not always repeated. “Also recorded” adds a separate entry of the source.

Key:
Type in all cases: physicochemical
[1] = Drug release from DC Bead LUMI in saline; settings: for release in saline from DC Bead LUMI after multiple washes in deionized water: single replicates
Experimental: […] Briefly, drug-loaded DC Bead LUMI or LC Bead (62.5 µL) were placed in vessels with 50 mL of saline ([…], pH 7.4) and were agitated with upright rocking motion at a set maximum rocking speed of 10 (70 rpm) for 144 h at 37 °C using Ward's® Rotating Mixer. At scheduled time intervals identical to the loading time points, 1 mL of release media was withdrawn and used for drug quantification. To maintain 50 mL total elution volume, 1 mL of fresh saline pre heated to 37 °C was replaced at each timepoint. […] 2.4. The cumulative amount of drug released at each time point was calculated by multiplying the concentration of each sample aliquot by the total volume (50 mL) of release media and adding the sum of the amount of drug removed for sampling at prior time points. […] The 50 mL volume was chosen to ensure infinite sink conditions where the maximum possible concentration of eluted drug would be at least 10 times more dilute than the maximum solubility. This ensures the rate of release is not affected by solution concentration but is only a function of interactions of the bead, drug, and saline.

[2] = Washing of drug-loaded beads with deionized water and microscopic appearance
Experimental: (§1) Drug loading was performed in triplicate as previously reported[45] with slight modifications. […] Washing of beads is often a critical step in drug release studies as any drug left unbound to the beads affects the release profile and exaggerates the early burst release. […] However, washing was discontinued for TLR drugs as drug was continually observed even after multiple washes. […] The amount of drug loaded at the specified time points was calculated by subtracting the amount of drug remaining from the initial amount of drug in the loading solution and the cumulative amount of drug withdrawn for sampling. The maximum drug loaded in the beads was calculated once no further change in the concentration in the loading solution could be measured and before washing the beads. The relative percent drug loaded was defined as the maximum amount of drug loaded as a percent of the amount of SO3^- ions available in the beads on a molar basis using the following formula and the results are presented as the mean ± SD.

[3] = Drug loading into DC Bead LUMI
Experimental: as §1, with “DC Bead LUMI was analyzed for its elemental composition by MEDAC Inc. […] Drug” for “Drug”

[4] = Drug solubilization by salt formation in acid; settings: T in °C in parentheses in the cell (20.1 or 21.1)
Experimental: The base form of each drug was suspended in deionized water and titrated with 0.1 N hydrochloric acid (Fisher Scientific, Hampton, NH) while stirring until all the base was solubilized and the volume adjusted to a final concentration of 2.5 mg/mL. The resulting solution was frozen, then lyophilized to yield solid drug-hydrochloride salt or used in its solubilized form for loading into DC Bead LUMI. […] Doxorubicin.HCl was readily solubilized and used without modification. […] A ZORBAX Eclipse Plus C8 reversed-phase column (Agilent) and UV detector at wavelength of 230 nm were used for GS-9620 analysis. The decomposition product of GS-9620 was analyzed with reversed phase high-performance liquid chromatography (Rp-HPLC) and LC/MS.

release behaviour in saline ([1]; DC Bead LUMI): rapid release
removal of drug from beads by repeated washing with deionized water ([2]; DC Bead LUMI): partially removed
Relative percent drug loaded in DC Bead LUMI over time ([3]; 5 min, single replicates): 27.7169% and 54.7567% and 47.2582%
Relative percent drug loaded in DC Bead LUMI over time ([3]; 15 min, single replicates): 44.3244% and 64.1912% and 77.4846%
Relative percent drug loaded in DC Bead LUMI over time ([3]; 30 min, single replicates): 53.7652% and 98.7583% and 64.7248%
Relative percent drug loaded in DC Bead LUMI over time ([3]; 45 min, single replicates): 63.5604% and 86.8486% and 80.4348%
Relative percent drug loaded in DC Bead LUMI over time ([3]; 60 min, single replicates): 62.6391% and 89.327% and 89.6722%
Relative percent drug loaded in DC Bead LUMI over time ([3]; 120 min, single replicates): 76.6569% and 94.7702% and 91.6603%
Relative percent drug loaded in DC Bead LUMI over time ([3]; 180 min, single replicates): 84.3868% and 95.4708% and 91.4628%
Relative percent drug loaded in DC Bead LUMI over time ([3]; 240 min, single replicates): 88.4335% and 96.0638% and 91.7809%
Relative percent drug loaded in DC Bead LUMI over time ([3]; 300 min, single replicates): 89.1562% and 94.7965% and 91.1063%
Relative percent drug loaded in DC Bead LUMI over time ([3]; 360 min, single replicates): 89.8821% and 93.7278% and 90.6691%
Relative percent drug loaded in DC Bead LUMI over time ([3]; 420 min, single replicates): 89.552% and 95.0881% and 90.3963%
Relative percent drug loaded in DC Bead LUMI over time ([3]; 480 min, single replicates): 88.9036% and 95.9382% and 95.3273%
Relative percent drug loaded in DC Bead LUMI over time ([3]; 1440 min, single replicates): 88.6238% and 94.7298% and 89.6159%
Relative percent drug loaded in DC Bead LUMI over time ([3]; 2880 min, single replicates): 89.5863% and 97.1979% and 88.3669%
Relative percent drug loaded in DC Bead LUMI over time ([3]; 4320 min, single replicates): 89.4163% and 95.3897% and 90.7133%
Relative percent drug loaded in DC Bead LUMI over time ([3]; 8640 min, single replicates): 89.5369% and 92.0678% and 86.7361%
loading behaviour ([3]; DC Bead LUMI): Fast loading
Relative percent drug loaded (maximum, percent of SO3− available on a molar basis) ([3]; DC Bead LUMI, mean (n = 3)): 95% and 94.66%
equivalent of drug loaded to sulfonated bead ([3]; DC Bead LUMI, mean ± SD): 0.27 ± 0.01 mM drug/ml beads
Maximum drug loaded ([3]; DC Bead LUMI, mean ± SD, n = 3, base form except Dox (salt form)): 65.28 ± 3.09 mg drug/ml beads
Maximum drug loaded (Triplicate), % ([3]; DC Bead LUMI, single replicates): 89.8821% and 98.7583% and 95.3273%
Drug: sulfonate ([3]; molar ratio at maximum loading, DC Bead LUMI): 0.946
Theoretical maximum loading level based on SO3− contents ([3]; per mL DC Bead LUMI, assuming 1:1 drug to sulfonate): 68.97 mg
pH at which each drug dissolved for loading [4]: 2.06 (20.1)
Structure (SMILES): CC(C)Cn1cnc2c(N)nc3ccccc3c21 [IMQ, imiquimod]
release in saline from DC Bead LUMI after multiple washes in deionized water ([1]; 5 min): 3.738 mg/mL of beads and 1.905 mg/mL of beads and 0.7403 mg/mL of beads
release in saline from DC Bead LUMI after multiple washes in deionized water ([1]; 15 min): 4.599 mg/mL of beads and 2.598 mg/mL of beads and 1.25 mg/mL of beads
release in saline from DC Bead LUMI after multiple washes in deionized water ([1]; 30 min): 6.014 mg/mL of beads and 2.518 mg/mL of beads and 1.755 mg/mL of beads
release in saline from DC Bead LUMI after multiple washes in deionized water ([1]; 45 min): 5.636 mg/mL of beads and 3.25 mg/mL of beads and 2.648 mg/mL of beads
release in saline from DC Bead LUMI after multiple washes in deionized water ([1]; 60 min): 6.005 mg/mL of beads and 3.196 mg/mL of beads and 2.336 mg/mL of beads
release in saline from DC Bead LUMI after multiple washes in deionized water ([1]; 120 min): 7.034 mg/mL of beads and 4.188 mg/mL of beads and 2.86 mg/mL of beads
release in saline from DC Bead LUMI after multiple washes in deionized water ([1]; 180 min): 9.042 mg/mL of beads and 4.426 mg/mL of beads and 3.116 mg/mL of beads
release in saline from DC Bead LUMI after multiple washes in deionized water ([1]; 240 min): 8.512 mg/mL of beads and 4.6972 mg/mL of beads and 3.19 mg/mL of beads
release in saline from DC Bead LUMI after multiple washes in deionized water ([1]; 300 min): 8.8991 mg/mL of beads and 4.841 mg/mL of beads and 3.452 mg/mL of beads
release in saline from DC Bead LUMI after multiple washes in deionized water ([1]; 360 min): 9.596 mg/mL of beads and 5.306 mg/mL of beads and 3.529 mg/mL of beads
release in saline from DC Bead LUMI after multiple washes in deionized water ([1]; 420 min): 9.49 mg/mL of beads and 5.808 mg/mL of beads and 4.0861 mg/mL of beads
release in saline from DC Bead LUMI after multiple washes in deionized water ([1]; 480 min): 9.552 mg/mL of beads and 5.445 mg/mL of beads and 3.722 mg/mL of beads
release in saline from DC Bead LUMI after multiple washes in deionized water ([1]; 1440 min): 10.8637 mg/mL of beads and 7.881 mg/mL of beads and 6.056 mg/mL of beads
release in saline from DC Bead LUMI after multiple washes in deionized water ([1]; 2880 min): 12.3732 mg/mL of beads and 7.686 mg/mL of beads and 6.267 mg/mL of beads
release in saline from DC Bead LUMI after multiple washes in deionized water ([1]; 4320 min): 15.5973 mg/mL of beads and 8.751 mg/mL of beads and 7.964 mg/mL of beads
release in saline from DC Bead LUMI after multiple washes in deionized water ([1]; 8640 min): 14.5448 mg/mL of beads and 10.1106 mg/mL of beads and 7.947 mg/mL of beads
aggregation of drug during washing / elution ([2]; deionized water and saline, microscopy): Aggregation of IMQ was observed; also recorded: formed aggregates; also recorded: exhibited aggregation
